System: peptide-specific IgG in the serum
Assay: ELISA of peptide-specific IgG in sera of HCV patients and healthy donors (Example 1)
Assay type: binding, human
Conditions: ELISA, cut-off value 1.83; for Healthy donors (n = 10) Positive n: number of 10 healthy donors with serum IgG reactive to the peptide; for HCV patients (n = 12) Positive n: number of 12 HCV patients with serum IgG reactive to the peptide; for Healthy donors (n = 10) Positive %: share of 10 healthy donors with serum IgG reactive to the peptide; for HCV patients (n = 12) Positive %: share of 12 HCV patients with serum IgG reactive to the peptide
Procedure: Synthetic peptides having an HLA-A2-binding motif or an HLA-A24-binding motif from a conserved region of HCV genotype 1b protein were used in this study (Table 1). A peptide derived from HIV having an HLA-A2-binding motif was used as a negative control. All of these peptides were purchased from a commercially supplier. The purity was analyzed by reverse-phase high-pressure liquid chromatography and found to be 90% or higher.
The level of the peptide-specific IgG in the serum was measured by ELISA. First, each peptide was dissolved in dimethyl sulfoxide (DMSO) and stored at −80° C. The peptide was diluted with 0.1 M sodium carbonate/sodium bicarbonate solution containing disuccinimidyl suberate (DSS) as a crosslinker. An ELISA plate was coated with 20 μg/well of peptide at 4° C. overnight. The wells were washed 3 times with 0.05% Tween 20/PBS (PBST), and the plate was blocked with Block Ace (registered trademark) and left overnight at 4° C. Plasma or serum samples were diluted in 1:100, 1:200 and 1:400 with 0.05% Tween 20/Block Ace, and 100 μl of each of the samples was added to each well. After the samples were incubated at 37° C. for 2 hours, the plate was washed 9 times with PBST, 100 μl of a 1:1000 diluted rabbit anti-human IgG (γ-chain specific) was added to each well, and incubated at 37° C. for 2 hours. The plate was washed 9 times with PBST, and 100 μl of 1:100 diluted mouse anti-rabbit IgG conjugated to a horseradish peroxidase-dextran polymer was added to each well, and then the plate was incubated at room temperature for 40 minutes. After the plate was washed, 100 μl of a tetramethylbenzidine substrate solution was added to each well. The reaction was stopped by the addition of 2.0 M phosphoric acid. The cutoff value was calculated as the mean±3 SD of the optical density values of the control obtained from the healthy donors.
The level of IgG that reacts with each of the 62 types of peptides was measured in the sera from 12 patients infected with HCV and 10 healthy donors (HDs) (Table 1).

## 3 (RYAPACKPL; Hepatitis C Virus) [Peptide 3]
  Healthy donors (n = 10) Positive n: 1
  HCV patients (n = 12) Positive n: 12
  Healthy donors (n = 10) Positive %: 10%
  HCV patients (n = 12) Positive %: 100%

## 5 (HYAPRPCGI; Hepatitis C Virus) [Peptide 5]
  Healthy donors (n = 10) Positive n: 0
  HCV patients (n = 12) Positive n: 0
  Healthy donors (n = 10) Positive %: 0%
  HCV patients (n = 12) Positive %: 0%

## 6 (HYPCTVNFTI; Hepatitis C Virus) [Peptide 6]
  Healthy donors (n = 10) Positive n: 0
  HCV patients (n = 12) Positive n: 0
  Healthy donors (n = 10) Positive %: 0%
  HCV patients (n = 12) Positive %: 0%

## 8 (SFAIKWEYVL; Hepatitis C Virus) [Peptide 8]
  Healthy donors (n = 10) Positive n: 0
  HCV patients (n = 12) Positive n: 0
  Healthy donors (n = 10) Positive %: 0%
  HCV patients (n = 12) Positive %: 0%

## 9 (EYVLLLFLL; Hepatitis C Virus) [Peptide 9]
  Healthy donors (n = 10) Positive n: 0
  HCV patients (n = 12) Positive n: 0
  Healthy donors (n = 10) Positive %: 0%
  HCV patients (n = 12) Positive %: 0%

## 10 (AYALYGVWPL; Hepatitis C Virus) [Peptide 10]
  Healthy donors (n = 10) Positive n: 0
  HCV patients (n = 12) Positive n: 1
  Healthy donors (n = 10) Positive %: 0%
  HCV patients (n = 12) Positive %: 8%

## 11 (AYMSKAHGI; Hepatitis C Virus) [Peptide 11]
  Healthy donors (n = 10) Positive n: 0
  HCV patients (n = 12) Positive n: 6
  Healthy donors (n = 10) Positive %: 0%
  HCV patients (n = 12) Positive %: 50%

## 12 (HYAPRPCGI; Hepatitis C Virus) [Peptide 12]
  Healthy donors (n = 10) Positive n: 0
  HCV patients (n = 12) Positive n: 9
  Healthy donors (n = 10) Positive %: 0%
  HCV patients (n = 12) Positive %: 75%

## 13 (VYEAADMIM; Hepatitis C Virus) [Peptide 13]
  Healthy donors (n = 10) Positive n: 0
  HCV patients (n = 12) Positive n: 6
  Healthy donors (n = 10) Positive %: 0%
  HCV patients (n = 12) Positive %: 50%

## 15 (LFLARLIWWL; Hepatitis C Virus) [Peptide 15]
  Healthy donors (n = 10) Positive n: 0
  HCV patients (n = 12) Positive n: 0
  Healthy donors (n = 10) Positive %: 0%
  HCV patients (n = 12) Positive %: 0%

## 17 (QFKQKAIGL; Hepatitis C Virus) [Peptide 17]
  Healthy donors (n = 10) Positive n: 0
  HCV patients (n = 12) Positive n: 3
  Healthy donors (n = 10) Positive %: 0%
  HCV patients (n = 12) Positive %: 25%

## 19 (HYVQMALMKL; Hepatitis C Virus) [Peptide 19]
  Healthy donors (n = 10) Positive n: 0
  HCV patients (n = 12) Positive n: 1
  Healthy donors (n = 10) Positive %: 0%
  HCV patients (n = 12) Positive %: 8%

## 20 (TYVYDHLTPL; Hepatitis C Virus) [Peptide 20]
  Healthy donors (n = 10) Positive n: 0
  HCV patients (n = 12) Positive n: 0
  Healthy donors (n = 10) Positive %: 0%
  HCV patients (n = 12) Positive %: 0%

## 21 (HYVQMALMKL; Hepatitis C Virus) [Peptide 21]
  Healthy donors (n = 10) Positive n: 0
  HCV patients (n = 12) Positive n: 5
  Healthy donors (n = 10) Positive %: 0%
  HCV patients (n = 12) Positive %: 42%

## 22 (TYVYDHLTPL; Hepatitis C Virus) [Peptide 22]
  Healthy donors (n = 10) Positive n: 0
  HCV patients (n = 12) Positive n: 7
  Healthy donors (n = 10) Positive %: 0%
  HCV patients (n = 12) Positive %: 58%

## 23 (GYGAGVAGAL; Hepatitis C Virus) [Peptide 23]
  Healthy donors (n = 10) Positive n: 0
  HCV patients (n = 12) Positive n: 2
  Healthy donors (n = 10) Positive %: 0%
  HCV patients (n = 12) Positive %: 17%

## 24 (AYAAQGYKVL; Hepatitis C Virus) [Peptide 24]
  Healthy donors (n = 10) Positive n: 0
  HCV patients (n = 12) Positive n: 2
  Healthy donors (n = 10) Positive %: 0%
  HCV patients (n = 12) Positive %: 17%

## 25 (VYHGAGSKTL; Hepatitis C Virus) [Peptide 25]
  Healthy donors (n = 10) Positive n: 0
  HCV patients (n = 12) Positive n: 6
  Healthy donors (n = 10) Positive %: 0%
  HCV patients (n = 12) Positive %: 50%

## 26 (AYALYGVWPL; Hepatitis C Virus) [Peptide 26]
  Healthy donors (n = 10) Positive n: 0
  HCV patients (n = 12) Positive n: 2
  Healthy donors (n = 10) Positive %: 0%
  HCV patients (n = 12) Positive %: 17%

## 27 (HYPCTVNFTI; Hepatitis C Virus) [Peptide 27]
  Healthy donors (n = 10) Positive n: 0
  HCV patients (n = 12) Positive n: 4
  Healthy donors (n = 10) Positive %: 0%
  HCV patients (n = 12) Positive %: 33%

## 28 (YYRGLDVSVI; Hepatitis C Virus) [Peptide 28]
  Healthy donors (n = 10) Positive n: 0
  HCV patients (n = 12) Positive n: 2
  Healthy donors (n = 10) Positive %: 0%
  HCV patients (n = 12) Positive %: 17%

## 29 (TFLVGLNQYL; Hepatitis C Virus) [Peptide 29]
  Healthy donors (n = 10) Positive n: 0
  HCV patients (n = 12) Positive n: 2
  Healthy donors (n = 10) Positive %: 0%
  HCV patients (n = 12) Positive %: 17%

## 30 (VFVGLILLTL; Hepatitis C Virus) [Peptide 30]
  Healthy donors (n = 10) Positive n: 0
  HCV patients (n = 12) Positive n: 4
  Healthy donors (n = 10) Positive %: 0%
  HCV patients (n = 12) Positive %: 33%

## 32 (IFLLALLSCL; Hepatitis C Virus) [Peptide 32]
  Healthy donors (n = 10) Positive n: 0
  HCV patients (n = 12) Positive n: 7
  Healthy donors (n = 10) Positive %: 0%
  HCV patients (n = 12) Positive %: 58%

## 33 (NFISGIQYL; Hepatitis C Virus) [Peptide 33]
  Healthy donors (n = 10) Positive n: 0
  HCV patients (n = 12) Positive n: 0
  Healthy donors (n = 10) Positive %: 0%
  HCV patients (n = 12) Positive %: 0%

## 35 (AFTASITSPL; Hepatitis C Virus) [Peptide 35]
  Healthy donors (n = 10) Positive n: 0
  HCV patients (n = 12) Positive n: 0
  Healthy donors (n = 10) Positive %: 0%
  HCV patients (n = 12) Positive %: 0%

## 36 (GYGAGVAGAL; Hepatitis C Virus) [Peptide 36]
  Healthy donors (n = 10) Positive n: 0
  HCV patients (n = 12) Positive n: 1
  Healthy donors (n = 10) Positive %: 0%
  HCV patients (n = 12) Positive %: 8%

## 37 (DFKTWLQSKL; Hepatitis C Virus) [Peptide 37]
  Healthy donors (n = 10) Positive n: 0
  HCV patients (n = 12) Positive n: 1
  Healthy donors (n = 10) Positive %: 0%
  HCV patients (n = 12) Positive %: 8%

## 38 (SFSIFLLALL; Hepatitis C Virus) [Peptide 38]
  Healthy donors (n = 10) Positive n: 0
  HCV patients (n = 12) Positive n: 7
  Healthy donors (n = 10) Positive %: 0%
  HCV patients (n = 12) Positive %: 58%

## 40 (YLLPRRGPRL; Hepatitis C Virus) [Peptide 40]
  Healthy donors (n = 10) Positive n: 0
  HCV patients (n = 12) Positive n: 12
  Healthy donors (n = 10) Positive %: 0%
  HCV patients (n = 12) Positive %: 100%

## 41 (SYTWTGALI; Hepatitis C Virus) [Peptide 41]
  Healthy donors (n = 10) Positive n: 0
  HCV patients (n = 12) Positive n: 0
  Healthy donors (n = 10) Positive %: 0%
  HCV patients (n = 12) Positive %: 0%
